Reference: US20240390329A1, “APPLICATION OF CHANNEL BLOCKER IN PREPARATION OF DRUGS FOR TREATING AND/OR PREVENTING LIVER FIBROSIS” (Affiliated Hospital of Zunyi Medical University, priority 2023, published 2024)
pIC50: −log10 of the molar value. Entries after “also recorded” stand apart in the source; their conditions may differ.

Key:
[1] = system: carbon tetrachloride (CCl4) induced liver fibrosis; assay: Mouse model of liver fibrosis induced by CCl4, treatment group given PHT sodium
[2] = system: hepatic stellate cells (HSCs); assay: CCK-8 detection of the effect of PHT sodium on proliferation of HSCs; type: cell-based; details: CCK-8, 48 hours; read-out: IC50 value on HSC proliferation
[3] = system: HSCs induced by TGF-β1; assay: CCK-8 detection of the effect of PHT sodium on TGF-β1 induced proliferation of HSCs; type: cell-based; details: PHT sodium 200 μM, p<0.05
[4] = Drug group: healthy mice given PHT sodium alone, compared with normal control group; type: in vivo, male C57 mice
[5] = system: HSCs (α-SMA, LC3, p62 expression); assay: Western blotting of α-SMA, LC3 and p62 in HSCs stimulated with TGF-β1; type: cell-based; details: TGF-β1+PHT vs TGF-β1 alone; PHT sodium 200 μM; p<0.05
Method: Extraction of cell protein: the cells that need to be extracted protein are removed from the incubator, rinsed twice with the prepared PBS solution, placed on a clean filter paper, and the remaining PBS is dried. Then, a certain amount of radio immunoprecipitation assay (RIPA) protein lysis solution is added according to the growth of the cells, and the protein is lysed for about 30 minutes. Then, the lysed protein stock solution is scraped with a scraper, placed in prepared EP tubes, and then placed in a high-speed centrifuge and centrifuged at 12,000 rpm at 4° C. for 30 minutes. After centrifugation is completed, the supernatant is taken for subsequent protein quantification.

[6] = treatment group vs model group, p<0.05
[7] = drug group vs normal control group

liver lobules (HE, Masson's trichrome, picric-Sirius red staining) ([4]; drug group): intact and structurally normal
appearance of the liver [4, 7]: no significant difference
general state of mice (fur, activity) ([4]; drug group, food and water intake normal): smooth fur and active activity
SMILES: O=C1NC(=O)C(c2ccccc2)(c2ccccc2)N1 [PHT sodium, phenytoin sodium]
collagen content in the liver of mice ([1]; staining of liver sections): reduce
liver texture (appearance of the liver, naked eye) ([1]; treatment group vs model group): softer than that of the model group
activity of the mice ([1]; treatment group vs model group, PHT sodium 1 mM, 10 mL/kg i.p. once a day): significantly increased
degree of liver fibrosis (HE, Masson's trichrome, picric-Sirius red staining) ([1]; treatment group vs model group, liver sections): reduced
expression of LC3 in liver tissue (Western blotting) [1, 6]: decreased
expression of p62 in liver tissue (Western blotting) [1, 6]: increased
expression of α-SMA in liver tissue (Western blotting) [1, 6]: decreased
positive expression of α-SMA in liver sections (immunohistochemistry) [1, 6]: decreased compared with the model group
transaminase (ALT, AST) in serum [1, 6]: lower than that in the model group
pIC50 [2]: 3.63
proliferation of HSCs promoted by TGF-β1 [3]: inhibited
transaminase (ALT, AST) in serum [4, 7]: no significant difference
positive expression of α-SMA in liver sections (immunohistochemistry) ([4]; drug group, at edges of hepatic portal vein and central vein): only a small amount of positive expression
expression of autophagy substrate protein p62 in HSCs [5]: significantly increased
expression of autophagy-related protein LC3 in HSCs [5]: significantly decreased
expression of α-SMA in HSCs [5]: significantly lower; also recorded: decreased
